Test results taken from paper PMC3823594, “Conformational Changes Underlying Pore Dilation in the Cytoplasmic Domain of Mammalian Inward Rectifier K^+ Channels” (PLoS ONE, 2013).
Changes are numbered by the printed parent chain.

Legend:
Kir3.2 E236A = molecular target: T1, Kir3.2 E236A (Mus musculus, UniProt P48542, E236A); test: Two-electrode voltage clamp, ACh-dependent (m2R-dependent) K+ current activation; assay type: cell-based; settings: Kir3.2 E236A with porcine m2R in Xenopus oocytes; −120 mV; Hill equation fit
T1 sequence (P48542 19-425 E236A): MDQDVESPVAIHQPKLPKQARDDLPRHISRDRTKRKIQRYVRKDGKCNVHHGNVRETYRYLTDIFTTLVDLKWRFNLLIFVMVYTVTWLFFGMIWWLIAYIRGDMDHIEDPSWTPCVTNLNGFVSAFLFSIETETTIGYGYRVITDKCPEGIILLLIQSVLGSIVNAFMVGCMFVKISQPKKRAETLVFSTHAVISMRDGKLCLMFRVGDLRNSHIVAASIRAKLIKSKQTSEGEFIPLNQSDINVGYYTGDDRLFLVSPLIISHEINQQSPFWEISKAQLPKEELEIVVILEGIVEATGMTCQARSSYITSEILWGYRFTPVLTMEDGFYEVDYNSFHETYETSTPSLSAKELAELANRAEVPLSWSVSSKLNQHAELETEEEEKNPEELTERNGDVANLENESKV
T1 sequence (P06199 1-466 partner): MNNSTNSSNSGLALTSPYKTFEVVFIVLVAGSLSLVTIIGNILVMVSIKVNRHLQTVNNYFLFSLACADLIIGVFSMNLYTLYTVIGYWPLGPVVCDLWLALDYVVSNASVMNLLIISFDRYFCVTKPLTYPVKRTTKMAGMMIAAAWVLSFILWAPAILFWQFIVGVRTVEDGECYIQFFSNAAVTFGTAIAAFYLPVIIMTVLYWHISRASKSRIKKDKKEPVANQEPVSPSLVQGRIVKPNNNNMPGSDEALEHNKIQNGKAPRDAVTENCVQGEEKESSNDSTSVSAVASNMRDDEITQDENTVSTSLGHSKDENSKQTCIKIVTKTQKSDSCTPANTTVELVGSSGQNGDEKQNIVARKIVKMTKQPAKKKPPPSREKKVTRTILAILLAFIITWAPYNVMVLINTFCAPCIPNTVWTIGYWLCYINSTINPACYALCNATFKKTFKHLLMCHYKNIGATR

Kir3.2 E236G = molecular target: T2, Kir3.2 E236G (Mus musculus, UniProt P48542, E236G); test: as above; assay type: cell-based; settings: Kir3.2 E236G with porcine m2R in Xenopus oocytes; −120 mV; Hill equation fit
T2 sequence (P48542 19-425 E236G): T1 sequence (P48542 19-425 E236A) with A218G
T2 sequence (P06199 1-466 partner): T1 sequence (P06199 1-466 partner)

CC(=O)OCC[N+](C)(C)C [ACh, acetylcholine]
Hill coefficient (Kir3.2 E236A): 1.12 ± 0.04
Hill coefficient (Kir3.2 E236G): 1.10 ± 0.04
